The text below walks through data of PubChem BioAssay AID743339 (Broad Institute, 2014).

Activity calls are given as the source filed them.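 The calls were made as follows: active = activation curve crossing 200% at or below the highest valid dose tested for that sample; inconclusive = flat curve with activation between 30 and 70%, or poor fit; inactive = the rest, including signal falling instead of rising.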

The target in the first assay is Leucyl-cystinyl aminopeptidase (Mus musculus) (UniProt Q8C129). The experiment in a line: activation of mouse IRAP aminopeptidase activity – biochemical, Leu-AMC fluorescence, cherry-picked samples, selectivity assay for ERAP1 modulator project, dose response (AID 743339). The note with it: purified IRAP, Leu-AMC cleavage fluorescence, 1 h.
Chain of Leucyl-cystinyl aminopeptidase (Mus musculus) (Q8C129 whole entry, looked up): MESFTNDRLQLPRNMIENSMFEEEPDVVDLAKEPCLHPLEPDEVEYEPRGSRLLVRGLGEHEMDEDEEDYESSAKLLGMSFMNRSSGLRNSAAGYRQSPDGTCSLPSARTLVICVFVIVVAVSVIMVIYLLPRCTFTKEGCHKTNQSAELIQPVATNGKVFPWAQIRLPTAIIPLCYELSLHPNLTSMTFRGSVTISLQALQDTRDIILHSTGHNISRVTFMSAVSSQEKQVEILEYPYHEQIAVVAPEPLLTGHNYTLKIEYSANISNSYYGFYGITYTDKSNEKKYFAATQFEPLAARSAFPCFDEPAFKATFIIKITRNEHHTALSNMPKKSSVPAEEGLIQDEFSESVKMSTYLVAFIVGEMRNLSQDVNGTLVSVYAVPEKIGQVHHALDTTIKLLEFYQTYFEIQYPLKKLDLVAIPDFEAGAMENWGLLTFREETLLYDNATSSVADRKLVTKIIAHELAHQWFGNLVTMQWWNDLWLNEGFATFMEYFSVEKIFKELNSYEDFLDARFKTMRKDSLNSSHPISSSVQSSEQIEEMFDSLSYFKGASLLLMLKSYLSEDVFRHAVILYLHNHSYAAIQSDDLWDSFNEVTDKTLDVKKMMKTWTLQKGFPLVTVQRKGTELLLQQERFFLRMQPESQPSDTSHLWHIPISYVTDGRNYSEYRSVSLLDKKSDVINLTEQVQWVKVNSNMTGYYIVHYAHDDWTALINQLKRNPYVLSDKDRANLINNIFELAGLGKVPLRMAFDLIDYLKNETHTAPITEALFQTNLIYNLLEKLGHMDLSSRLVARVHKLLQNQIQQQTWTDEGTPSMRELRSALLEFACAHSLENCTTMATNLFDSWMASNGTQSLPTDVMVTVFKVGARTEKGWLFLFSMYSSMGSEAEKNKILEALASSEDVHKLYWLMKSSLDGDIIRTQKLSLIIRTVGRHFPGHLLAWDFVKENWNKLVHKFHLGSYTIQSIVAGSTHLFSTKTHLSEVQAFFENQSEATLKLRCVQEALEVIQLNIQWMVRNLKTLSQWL
For `COC(=O)Cc1c(C)c2ccc(O)c(CNCc3ccc(OC)c(OC)c3)c2oc1=O`, the AC200 is 535 nM.

`COC(=O)[C@H]1[C@H](CO)[C@H]2Cn3c(ccc(/C=C/c4ccccc4)c3=O)[C@@H]1N2C(=O)C1CCC1`: the AC200 was 842 nM.

In the case of `COc1cccc(CN(C)Cc2cc(=O)oc3cc(O)c(Cl)cc23)c1`, the AC200 was 793 nM.

On to `CC(=O)N1[C@@H]2c3ccc(/C=C/c4ccccc4)c(=O)n3C[C@H]1[C@H](CO)[C@H]2C(=O)N1CCOCC1`, for which the AC200 is 1100 nM.

Consider `CC(=O)Oc1cc2oc(=O)cc(C)c2cc1Cl`, for which the AC200 is 507 nM.

With `Cc1c(-c2ccccc2)c(=O)oc2cc(O)ccc12`, the AC200 was 1240 nM.

Turning to `Cc1cc(=O)oc2cc(OCC(=O)N3CCN(C(C)c4ccccc4)CC3)c(Cl)cc12` (centres undefined), the AC200 is 1980 nM.

For the compound `C/C(=N\NC(=O)CC#N)c1cc2ccc(O)cc2oc1=O`, the AC200 was 1080 nM.

With `CC(=O)N1[C@@H]2Cn3c(ccc(/C=C/c4ccccc4)c3=O)[C@H]1[C@@H](C(=O)NCC1CC1)[C@@H]2CO`, the AC200 is 1290 nM.

As for `CCN1[C@@H]2c3ccc(/C=C/c4ccccc4)c(=O)n3C[C@H]1[C@H](CO)[C@H]2C(=O)N1CCOCC1`, the AC200 was 2310 nM.

The assay is the same for the next values; noted with them: purified IRAP, Leu-AMC cleavage fluorescence, 1 h; at 5.6 µM (top of the series).
Take `Cc1ccc(-c2cc(C(=O)N3CCCC3)c3ccccc3n2)s1`: the activation was 152% (inactive).

Still in this assay, the particulars now being: purified IRAP, Leu-AMC cleavage fluorescence, 1 h; at 10 µM (top of the series).
As for `Cc1noc(C)c1S(=O)(=O)Nc1ccc2c(c1)C(=O)N([C@H](C)CO)C[C@H](C)[C@H](CN(C)Cc1ccc3c(c1)OCO3)OCCCC[C@@H](C)O2`, the activation was -18.4% (inactive).

The same assay, now with this note: purified IRAP, Leu-AMC cleavage fluorescence, 1 h; at 11 µM (top of the series).
Consider `CCn1cc(CN2CCCC(C(=O)Nc3ccc(-c4nc5ccccc5[nH]4)cc3)C2)c(C)n1` (centres undefined), for which the activation was -5.33% (inactive).

In the case of `COc1ccc(CN(C)C[C@H]2OCCCC[C@@H](C)Oc3ccc(NS(=O)(=O)c4cccs4)cc3C(=O)N([C@@H](C)CO)C[C@H]2C)cc1`, the activation was 2.6% (inactive).

With `C[C@@H]1CCCCO[C@H](CN(C)Cc2ccccc2)[C@H](C)CN([C@H](C)CO)C(=O)c2cc(NS(=O)(=O)c3ccccc3)ccc2O1`, the activation is -9.37% (inactive).

As to `C[C@@H]1CCCCO[C@H](CN(C)Cc2ccc(C(=O)O)cc2)[C@@H](C)CN([C@H](C)CO)C(=O)c2cc(NC(=O)Nc3ccc(C(F)(F)F)cc3)ccc2O1`, the activation was 9.92% (inactive).

Consider `Cc1ccccc1-c1ccc2c(c1)O[C@@H](CN(C)Cc1ccc(C(=O)O)cc1)[C@@H](C)CN([C@H](C)CO)S2(=O)=O`, for which the activation was 3.78% (inactive).

Turning to `CNC[C@H]1OCCCC[C@@H](C)Oc2ccc(NS(=O)(=O)c3ccc(C)cc3)cc2C(=O)N([C@@H](C)CO)C[C@H]1C`, the activation was -8.83% (inactive).

As to `C[C@@H]1CCCCO[C@@H](CN(C)Cc2ccccc2)[C@H](C)CN([C@H](C)CO)C(=O)c2cc(NS(=O)(=O)c3cccs3)ccc2O1`, the activation was -6.87% (inactive).
